In ChEMBL document CHEMBL1201862, “PubChem BioAssay data set” (2004):
The source made the active and inactive calls.

What was measured:
[1] = molecular target: T1, DNA repair protein RAD52 homolog (Homo sapiens, UniProt P43351); assay type: functional, biochemical
T1 sequence (P43351 whole entry): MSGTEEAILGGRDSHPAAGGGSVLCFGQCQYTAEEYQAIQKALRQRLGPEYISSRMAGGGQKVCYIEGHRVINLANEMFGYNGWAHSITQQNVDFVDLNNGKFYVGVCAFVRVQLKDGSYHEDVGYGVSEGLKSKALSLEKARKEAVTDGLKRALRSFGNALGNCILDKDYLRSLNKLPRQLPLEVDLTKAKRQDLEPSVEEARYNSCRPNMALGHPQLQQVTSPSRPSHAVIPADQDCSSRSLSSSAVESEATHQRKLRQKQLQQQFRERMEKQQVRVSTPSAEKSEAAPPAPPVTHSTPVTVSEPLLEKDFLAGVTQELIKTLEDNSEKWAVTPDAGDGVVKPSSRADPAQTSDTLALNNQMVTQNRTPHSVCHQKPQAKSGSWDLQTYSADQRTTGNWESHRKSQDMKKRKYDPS

cells [2] = assay type: functional, cell-based
cells [3] = assay type: functional, cell-based; remark: listed apart in the source
[4] = molecular target: T2, Adenosylmethionine-8-amino-7-oxononanoate aminotransferase (Mycobacterium tuberculosis, UniProt P9WQ81); test: Mycobacterium tuberculosis BioA enzyme inhibitor Measured in Biochemical System Using Plate Reader - 2163-02_Inhibitor_Dose_CherryPick_Activity.; assay type: functional, Mycobacterium tuberculosis UT205
T2 sequence (P9WQ81 whole entry): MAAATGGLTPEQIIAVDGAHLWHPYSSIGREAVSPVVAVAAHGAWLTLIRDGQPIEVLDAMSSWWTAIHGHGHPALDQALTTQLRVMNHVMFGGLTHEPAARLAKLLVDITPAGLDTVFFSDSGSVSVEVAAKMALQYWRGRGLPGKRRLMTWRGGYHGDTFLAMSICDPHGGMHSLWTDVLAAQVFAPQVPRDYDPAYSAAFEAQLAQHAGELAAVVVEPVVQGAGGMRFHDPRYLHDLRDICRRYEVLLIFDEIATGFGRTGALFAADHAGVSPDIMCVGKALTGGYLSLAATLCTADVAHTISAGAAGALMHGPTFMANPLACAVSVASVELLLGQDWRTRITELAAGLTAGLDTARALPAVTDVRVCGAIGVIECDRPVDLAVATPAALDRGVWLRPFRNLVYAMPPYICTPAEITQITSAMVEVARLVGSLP

Estrogen receptor = molecular target: T3, Estrogen receptor (Homo sapiens, UniProt P03372);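 further: potency for inhibiting coactivator peptide recruitment to the receptor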
T3 sequence (P03372 whole entry): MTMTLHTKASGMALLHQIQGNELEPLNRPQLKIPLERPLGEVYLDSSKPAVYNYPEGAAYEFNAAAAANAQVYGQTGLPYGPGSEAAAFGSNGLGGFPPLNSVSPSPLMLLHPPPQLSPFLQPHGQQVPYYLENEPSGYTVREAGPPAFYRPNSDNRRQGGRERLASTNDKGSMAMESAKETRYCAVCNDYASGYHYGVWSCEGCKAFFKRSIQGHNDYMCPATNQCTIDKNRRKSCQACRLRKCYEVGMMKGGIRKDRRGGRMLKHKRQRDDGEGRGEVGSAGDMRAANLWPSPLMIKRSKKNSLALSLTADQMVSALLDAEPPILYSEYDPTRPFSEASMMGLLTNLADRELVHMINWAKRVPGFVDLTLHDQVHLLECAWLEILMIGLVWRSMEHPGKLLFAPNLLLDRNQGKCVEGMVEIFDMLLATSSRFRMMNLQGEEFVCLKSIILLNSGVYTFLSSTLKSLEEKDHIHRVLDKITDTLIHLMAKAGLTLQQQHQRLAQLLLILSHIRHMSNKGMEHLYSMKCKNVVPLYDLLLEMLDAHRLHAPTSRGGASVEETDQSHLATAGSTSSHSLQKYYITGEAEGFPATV

[5] = M. tuberculosis H37Rv growth inhibitors, H37Rv strain (AID 1626); assay type: functional
[6] = molecular target: T4, Rac GTPase-activating protein 1 (Homo sapiens, UniProt Q9H0H5); test: MgcRacGAP GTPase-activating activity inhibitors, confirmation, biochemical, ADP Hunter fluorescence, primary and confirmatory (AID 624330); assay type: functional
T4 sequence (Q9H0H5 whole entry): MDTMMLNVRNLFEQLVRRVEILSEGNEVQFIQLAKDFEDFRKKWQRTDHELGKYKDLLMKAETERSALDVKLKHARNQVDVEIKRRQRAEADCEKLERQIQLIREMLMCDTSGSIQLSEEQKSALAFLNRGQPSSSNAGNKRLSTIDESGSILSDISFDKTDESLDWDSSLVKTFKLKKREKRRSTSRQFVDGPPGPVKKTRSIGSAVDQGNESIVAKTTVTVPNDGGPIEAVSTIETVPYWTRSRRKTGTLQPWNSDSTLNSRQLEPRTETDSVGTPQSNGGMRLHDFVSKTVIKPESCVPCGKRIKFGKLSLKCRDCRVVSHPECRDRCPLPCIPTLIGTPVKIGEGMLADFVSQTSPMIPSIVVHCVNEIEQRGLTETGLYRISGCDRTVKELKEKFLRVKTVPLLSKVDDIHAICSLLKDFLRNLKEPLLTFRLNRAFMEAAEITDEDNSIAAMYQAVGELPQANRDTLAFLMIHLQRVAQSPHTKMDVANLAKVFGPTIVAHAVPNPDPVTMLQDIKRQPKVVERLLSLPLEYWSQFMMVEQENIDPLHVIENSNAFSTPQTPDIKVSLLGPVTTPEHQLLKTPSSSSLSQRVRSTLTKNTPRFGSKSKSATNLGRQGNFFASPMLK

cells [7] = assay type: functional, cell-based; remark: listed apart in the source
cells [8] = assay type: functional, cell-based; remark: listed apart in the source
[9] = molecular target: Dual specificity tyrosine-phosphorylation-regulated kinase 1A (Rattus norvegicus, UniProt Q63470); assay type: biochemical, Homo sapiens
[10] = molecular target: T5, Nucleotide-binding oligomerization domain-containing protein 1 (Homo sapiens, UniProt Q9Y239); test: NOD1 signaling inhibitors, SAR follow-up, revised (AID 2333); assay type: functional
T5 sequence (Q9Y239 whole entry): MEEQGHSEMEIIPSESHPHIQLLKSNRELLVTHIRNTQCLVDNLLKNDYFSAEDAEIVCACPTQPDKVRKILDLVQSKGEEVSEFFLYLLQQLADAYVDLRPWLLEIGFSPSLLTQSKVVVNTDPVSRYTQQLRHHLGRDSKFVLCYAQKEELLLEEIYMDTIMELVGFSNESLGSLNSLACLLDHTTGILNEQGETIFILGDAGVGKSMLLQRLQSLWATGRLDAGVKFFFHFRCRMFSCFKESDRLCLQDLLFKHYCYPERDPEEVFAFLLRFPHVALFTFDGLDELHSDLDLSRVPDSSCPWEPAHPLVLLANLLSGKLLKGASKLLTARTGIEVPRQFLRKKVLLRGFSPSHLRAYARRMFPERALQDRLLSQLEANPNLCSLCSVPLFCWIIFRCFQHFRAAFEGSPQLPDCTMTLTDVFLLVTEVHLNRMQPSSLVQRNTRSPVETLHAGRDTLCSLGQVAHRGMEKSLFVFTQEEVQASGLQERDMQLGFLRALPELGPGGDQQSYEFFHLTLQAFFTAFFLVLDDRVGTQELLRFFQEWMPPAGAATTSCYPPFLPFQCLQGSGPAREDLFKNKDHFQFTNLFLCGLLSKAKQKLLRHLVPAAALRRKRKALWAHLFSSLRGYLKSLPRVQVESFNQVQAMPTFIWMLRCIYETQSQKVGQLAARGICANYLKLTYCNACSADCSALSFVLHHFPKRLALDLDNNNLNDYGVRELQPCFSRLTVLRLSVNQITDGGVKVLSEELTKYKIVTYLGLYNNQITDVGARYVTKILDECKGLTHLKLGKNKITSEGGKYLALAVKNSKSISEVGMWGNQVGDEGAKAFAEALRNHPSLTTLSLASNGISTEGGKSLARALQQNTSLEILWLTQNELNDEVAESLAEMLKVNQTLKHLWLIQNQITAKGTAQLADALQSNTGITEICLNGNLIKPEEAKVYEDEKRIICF

HEK293 [11] = test: cells; assay type: functional, cell-based; conditions: Homo sapiens
HEK293 [12] = test: NOD1 signaling inhibitors, primary screen, cell-based, luminescence, uHTS (AID 1578); assay type: functional; conditions: Homo sapiens
HEK293 [13] = test: cells; assay type: functional, cell-based; conditions: Homo sapiens; remark: listed apart in the source
HEK293 [14] = test: cells; conditions: Homo sapiens
[15] = molecular target: Nucleotide-binding oligomerization domain-containing protein 2 (Homo sapiens, UniProt Q9HC29); test: NOD2 signaling inhibitors, cell-based, luminescence, uHTS, HEK293 (AID 1566); assay type: functional
Tumor necrosis factor = Tumor necrosis factor (Homo sapiens, UniProt P01375); test: TNFa-triggered NF-kB activation inhibitors, SAR follow-up, cell-based, revised (AID 2337); assay type: functional
HEK293 [16] = test: cells; assay type: functional, cell-based; conditions: Homo sapiens; remark: listed apart in the source
HEK293 [17] = test: NOD2 signaling inhibitors in MDP-stimulated cells, cell-based, uHTS, luminescence (AID 2001); assay type: functional; conditions: Homo sapiens
[18] = NIH:OVCAR-3 ovarian cancer cell cytotoxicity, dose response, PAX8 inhibitor project, plate reader, dry powder samples (AID 743044); assay type: functional, cell-based
Paired box protein Pax-8 = Paired box protein Pax-8 (Homo sapiens, UniProt Q06710); test: inhibitors of PAX8-driven TPO luciferase reporter, dose response, RMG-I cells, cherry-pick (AID 687027); assay type: functional, cell-based;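 further: luciferase reporter driven by Pax8 target thyroperoxidase promoter measured by SteadyGlo luminescence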
[19] = molecular target: T6, Heat shock factor protein 1 (Mus musculus, UniProt P38532); test: inhibition of MG132-induced HSE-luciferase signal, confirmation, cell-based, NIH3T3, luminescence, dose retest (AID 2382); assay type: functional;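 further: NIH3T3 fibroblasts with HSF1-driven luciferase reporter stressed by proteasome inhibitor MG132; luminescence from HSF1-driven luciferase expression after 8 hours of MG132 stress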
T6 sequence (P38532 whole entry): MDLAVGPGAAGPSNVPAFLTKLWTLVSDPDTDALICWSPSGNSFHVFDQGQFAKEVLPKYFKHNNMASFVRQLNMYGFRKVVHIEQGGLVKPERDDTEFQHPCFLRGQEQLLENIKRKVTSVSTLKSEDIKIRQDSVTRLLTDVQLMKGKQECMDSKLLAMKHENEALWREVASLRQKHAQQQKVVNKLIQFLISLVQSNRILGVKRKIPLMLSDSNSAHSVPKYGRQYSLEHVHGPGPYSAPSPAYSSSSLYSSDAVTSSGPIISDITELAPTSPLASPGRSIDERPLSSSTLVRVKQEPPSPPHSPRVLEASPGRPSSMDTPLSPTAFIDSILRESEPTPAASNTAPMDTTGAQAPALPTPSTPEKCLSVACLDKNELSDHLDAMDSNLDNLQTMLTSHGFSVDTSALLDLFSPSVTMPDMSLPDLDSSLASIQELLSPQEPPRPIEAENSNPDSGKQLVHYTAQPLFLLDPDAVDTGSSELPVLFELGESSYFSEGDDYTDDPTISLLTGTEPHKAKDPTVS

[20] = microbe, parasite or virus in culture; assay type: functional; conditions: Mycobacterium tuberculosis
[21] = HEp-2 cell cytotoxicity, dose response, cytotoxicity control for RSV inhibitor project, HTS (AID 2410); assay type: functional; conditions: human respiratory syncytial virus

Nucleotide-binding oligomerization domain-containing protein 2, sequence (Q9HC29 whole entry, the tested form may be a part): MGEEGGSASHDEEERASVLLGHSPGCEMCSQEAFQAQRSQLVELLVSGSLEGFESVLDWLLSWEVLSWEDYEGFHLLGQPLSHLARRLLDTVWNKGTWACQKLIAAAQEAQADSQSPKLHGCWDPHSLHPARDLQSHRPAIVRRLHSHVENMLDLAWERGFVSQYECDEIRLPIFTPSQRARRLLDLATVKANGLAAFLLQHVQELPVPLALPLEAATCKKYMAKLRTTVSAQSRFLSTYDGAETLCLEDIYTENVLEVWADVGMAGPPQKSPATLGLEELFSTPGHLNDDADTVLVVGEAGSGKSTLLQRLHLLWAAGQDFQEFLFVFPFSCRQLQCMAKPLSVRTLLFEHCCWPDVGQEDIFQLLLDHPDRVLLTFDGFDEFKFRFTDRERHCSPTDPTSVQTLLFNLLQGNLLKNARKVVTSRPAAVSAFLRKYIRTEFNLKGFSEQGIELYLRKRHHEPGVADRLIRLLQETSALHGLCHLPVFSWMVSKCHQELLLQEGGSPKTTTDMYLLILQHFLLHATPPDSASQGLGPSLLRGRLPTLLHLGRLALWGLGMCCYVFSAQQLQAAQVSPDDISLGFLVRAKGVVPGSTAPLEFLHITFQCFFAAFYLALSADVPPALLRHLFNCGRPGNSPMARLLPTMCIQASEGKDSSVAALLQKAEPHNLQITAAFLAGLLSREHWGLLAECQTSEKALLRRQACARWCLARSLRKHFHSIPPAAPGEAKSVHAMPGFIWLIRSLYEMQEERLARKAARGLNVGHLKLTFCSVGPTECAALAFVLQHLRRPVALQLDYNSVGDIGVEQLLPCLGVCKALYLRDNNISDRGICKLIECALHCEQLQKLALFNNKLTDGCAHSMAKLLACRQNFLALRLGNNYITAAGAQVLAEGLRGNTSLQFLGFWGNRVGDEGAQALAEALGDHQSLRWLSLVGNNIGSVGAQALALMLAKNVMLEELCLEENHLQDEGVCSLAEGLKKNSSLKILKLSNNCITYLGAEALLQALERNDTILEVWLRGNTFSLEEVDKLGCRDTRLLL
Paired box protein Pax-8, sequence (Q06710 whole entry): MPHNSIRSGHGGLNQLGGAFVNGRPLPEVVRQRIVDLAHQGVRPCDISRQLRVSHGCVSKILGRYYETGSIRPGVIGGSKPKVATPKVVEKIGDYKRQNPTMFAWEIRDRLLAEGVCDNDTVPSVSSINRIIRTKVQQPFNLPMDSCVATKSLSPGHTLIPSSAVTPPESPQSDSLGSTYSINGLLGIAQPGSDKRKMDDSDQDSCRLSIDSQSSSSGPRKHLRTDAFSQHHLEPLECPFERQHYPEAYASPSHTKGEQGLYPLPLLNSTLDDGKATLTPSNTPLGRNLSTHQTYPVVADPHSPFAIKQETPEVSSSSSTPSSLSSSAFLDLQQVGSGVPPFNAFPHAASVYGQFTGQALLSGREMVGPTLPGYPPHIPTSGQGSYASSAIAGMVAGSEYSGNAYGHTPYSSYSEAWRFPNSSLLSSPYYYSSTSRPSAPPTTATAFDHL
Tumor necrosis factor, sequence (P01375 whole entry): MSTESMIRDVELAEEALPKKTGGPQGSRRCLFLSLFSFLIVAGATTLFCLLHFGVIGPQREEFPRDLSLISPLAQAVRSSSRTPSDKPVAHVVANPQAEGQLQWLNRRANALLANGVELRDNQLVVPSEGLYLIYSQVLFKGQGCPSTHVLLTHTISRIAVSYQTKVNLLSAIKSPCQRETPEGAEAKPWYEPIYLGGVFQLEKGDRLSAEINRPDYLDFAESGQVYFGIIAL

N=C(N)Nc1cc2ccccc2c2ccccc12
AC50 [1]: 7.61 µM (active) | IC50 (cells [2]): > 29.9 µM (inactive) | EC50 (cells [3]): > 29.9 µM (inactive)

COc1ccc(NC(=O)c2ccc(S(=O)(=O)N(C)C)cc2)cc1OC
AC50 [4]: 9.66 µM (active)

O=C(NNC(=O)c1ccc(SCC2CCCO2)c([N+](=O)[O-])c1)c1ccc(Cl)c([N+](=O)[O-])c1 (stereo unspecified)
IC50 (Estrogen receptor): 23.3 µM (active)

O=C(Cc1cccs1)N1CCN=C1SCc1ccc(Br)cc1
IC50 [5]: > 100 µM (active)

CC(C)c1onc(C(=O)NCCc2ccccc2)c1[N+](=O)[O-]
IC50 (cells [2]): > 29.9 µM (inactive) | EC50 (cells [3]): > 29.9 µM (inactive)

CC(=O)c1ccc(N2CCN(C(=O)c3ccc4[nH]cnc4c3)CC2)cc1
AC50 [4]: 8.11 µM (active)

COc1ccc(NC(=O)CSc2ncn(-c3ccccc3)n2)cc1Cl
IC50 [5]: > 100 µM (active)

O=C(CNCc1ccco1)Nc1ccc(Oc2ccccc2)cc1
IC50 [5]: > 100 µM (active) | IC50 [6]: 122 µM (active)

Cc1nnc(N2CCC(C(=O)N3CCCCC3)CC2)c2nn(-c3ccc(Cl)cc3)c(C)c12
AC50 [4]: 4.14 µM (active)

Cn1nnc2cc(C(=O)N3CCC(c4ccccc4)C3)ccc21 (stereo unspecified)
AC50 [4]: 4.86 µM (active) | EC50 (cells [7]): > 350 µM (not active) | EC50 (cells [8]): > 350 µM (not active)

O=C(COC(=O)CCC(=O)c1cccs1)NCc1ccco1
IC50 (Estrogen receptor): 11.9 µM (active)

Cc1cc(SCC(=O)NC(=O)NCc2ccco2)nc2c(C)cccc12
IC50 (Estrogen receptor): 32 µM (not active)

Cc1ccc(CNC(=O)c2cc3c(=O)n(C)c4ccccc4c3n2C)o1
AC50 [9]: > 120 µM (inactive)

COc1cccc(C(=O)Nc2sc3c(c2C(=O)O)CCCC3)c1
IC50 [10]: 1.76 µM (active) | IC50 (HEK293 [11]): > 20 µM (inactive) | EC50 (HEK293 [12]): > 20 µM (inactive) | IC50 (HEK293 [13]): > 20 µM (inactive) | IC50 (HEK293 [14]): > 20 µM (inactive) | EC50 [15]: > 20 µM (inactive) | IC50 (Tumor necrosis factor): > 20 µM (inactive) | IC50 (HEK293 [16]): > 20 µM (inactive) | IC50 (HEK293 [17]): > 20 µM (inactive)

O=C(CCCOc1ccccc1)NCCc1ccccc1
IC50 (cells [2]): > 29.9 µM (inactive) | EC50 (cells [3]): > 29.9 µM (inactive)

O=C(Nc1nc(-c2ccc(-c3ccccc3)cc2)cs1)c1cnccn1
IC50 [5]: > 100 µM (active)

CC(=O)N1[C@@H]2c3ccc(-c4cccnc4)c(=O)n3C[C@@H]2[C@@H](CO)[C@@H]1C(=O)NCc1ccccc1Cl
AC50 [4]: 1.09 µM (active)

C[C@@H]1CN([C@H](C)CO)C(=O)c2cc(NS(=O)(=O)c3ccc(Cl)cc3)ccc2O[C@@H](C)CCCCO[C@H]1CN(C)Cc1ccc(Cl)c(Cl)c1
AC50 [18]: 32.8 µM (active) | AC50 (Paired box protein Pax-8): 4.84 µM (active)

CNC(=S)N/N=C/c1ccc(-c2cccc(C(=O)O)c2)o1
AC50 [9]: 7.05 µM (active) | EC50 [19]: > 195 µM (not active)

CN1/C(=N\O)c2cccc3cccc1c23
CC50 [20]: > 40 µM (active) | IC50 [6]: 24.8 µM (active) | AC50 [9]: 1.28 µM (active) | CC50 [21]: 24.9 µM (active)

COc1ccc(/N=C/c2ccc[nH]2)cc1
IC50 [5]: > 100 µM (active)
